Experimental data from patent US20260250250A1, “3-(SULPHONYL OR SULFONIMIDOYL)PROP-2-EN-1-YL]-2-OXO-1,2-DIHYDROPYRIDINE-3-CARBOXAMIDE DERIVATIVES” (Flinder Therapeutics B.V., priority 2022, published 2026).
Where a name gives a salt, the structure may show the parent alone. Read-outs that look alike come from different tables or passages of the source.

Columns and labels:
[1] = biological target: T1, human E3 ubiquitin-protein ligase RNF31 (HOIP) (Homo sapiens, UniProt Q96EP0); assay: Cell-free HTRF-based HOIP inhibition assay; assay type: biochemical
T1 sequence (Q96EP0 695-1072 limits assumed): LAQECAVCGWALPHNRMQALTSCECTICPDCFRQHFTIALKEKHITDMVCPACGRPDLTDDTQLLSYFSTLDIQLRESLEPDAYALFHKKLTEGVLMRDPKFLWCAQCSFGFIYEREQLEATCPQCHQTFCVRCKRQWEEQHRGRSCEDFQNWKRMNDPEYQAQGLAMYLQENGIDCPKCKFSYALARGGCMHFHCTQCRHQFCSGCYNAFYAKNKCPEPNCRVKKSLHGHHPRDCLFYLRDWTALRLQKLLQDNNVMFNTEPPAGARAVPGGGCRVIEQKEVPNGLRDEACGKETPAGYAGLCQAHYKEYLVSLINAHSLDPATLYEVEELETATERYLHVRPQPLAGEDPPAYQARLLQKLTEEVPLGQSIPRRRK
Method in brief: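 HTRF read (ex 337 nm; em 665 and 620 nm) after a 2.5 h, 25° C. ubiquitination step started by adding E2 plus substrates. Before that, E. coli-expressed human HOIP fragment and E1 were incubated 1 h at 25° C. with compound at 100-0.005 μM, 1% DMSO final.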

[2] = test system: NF-κB signaling pathway; assay: Cell-based dual luciferase NF-κB reporter assay (HEK293 cells, TNF stimulated)
Method in brief: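 HEK293 cells transfected with Firefly luciferase and NF-κB-response-element NanoLuc plasmids; compounds at 100–0.005 µM in 1% DMSO. Cells stimulated with 2.5 ng/mL TNF 30 min after compound addition. Firefly and NanoLuc activities read after 6 h by Nano-Glo dual-luciferase detection.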

[3] = test system: bladder carcinoma RT4 cell line; assay: TNF-α-induced cytotoxicity assay (CellTiter-Glo viability); assay type: cell-based
Method in brief: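 RT4 bladder carcinoma cells, 1000 per well, stimulated with 1.25 ng/mL TNFα together with compound for 72 h at 37° C., 5% CO2. Viability read by CellTiter-Glo luminescence, proportional to cellular ATP, as a measure of HOIP-dependent cytotoxicity.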

Row | SMILES | IC50 [1] [nM] | IC50 ([2]; Homo sapiens, HEK293) [nM] | IC50 ([1]; bin printed as 100 nM < IC50 ≤ 1.0 μM (lower bound in the cell to the left)) [nM] | IC50 ([2]; HEK293, 2.5 ng/mL TNF, bin printed as 1.0 μM < IC50 ≤ 10 μM (lower bound in the cell to the left)) [nM] | IC50 ([3]; Homo sapiens, RT-4, 72 h) [nM] | IC50 ([3]; RT4, 1.25 ng/mL TNFα, 72 h, bin printed as 1.0 μM < IC50 ≤ 10 μM (lower bound in the cell to the left)) [nM]
1 | N=S(=O)(/C=C/CNC(=O)c1cc2c([nH]c1=O)CCC(F)(F)C2)c1ccc(F)cc1 (stereo not drawn) [Example 59, 6,6-difluoro-N-[(2E)-3-[(4-fluorophenyl)(imino)oxo-λ^6-sulfanyl]prop-2-en-1-yl]-2-oxo-1,2,5,6,7,8-hexahydroquinoline-3-carboxamide] | ≤ 1000 | ≤ 10000 | – | – | ≤ 1000 | –
2 | N=S(=O)(/C=C/CNC(=O)c1cc2c([nH]c1=O)CCCC2)c1ccccc1 (stereo not drawn) [Example 60, N-[(2E)-3-[imino(oxo)phenyl-λ^6-sulfanyl]prop-2-en-1-yl]-2-oxo-1,2,5,6,7,8-hexahydroquinoline-3-carboxamide] | ≤ 1000 | ≤ 1000 | – | – | ≤ 10000 | –
3 | COc1c(C)cc(S(=N)(=O)/C=C/CNC(=O)c2cc3c([nH]c2=O)CCCC3)cc1C (stereo not drawn) [Example 63, N-[(2E)-3-[Imino(4-methoxy-3,5-dimethylphenyl)oxo-λ^6-sulfanyl]prop-2-en-1-yl]-2-oxo-1,2,5,6,7,8-hexahydroquinoline-3-carboxamide] | ≤ 1000 | ≤ 1000 | – | – | ≤ 1000 | –
4 | COc1cccc(S(=N)(=O)/C=C/CNC(=O)c2cc3c([nH]c2=O)CCCC3)c1 (stereo not drawn) [Example 64, N-[(2E)-3-[imino(3-methoxyphenyl)oxo-λ^6-sulfanyl]prop-2-en-1-yl]-2-oxo-1,2,5,6,7,8-hexahydroquinoline-3-carboxamide] | ≤ 1000 | ≤ 1000 | – | – | ≤ 1000 | –
5 | N=S(=O)(/C=C/CNC(=O)c1cc2c([nH]c1=O)CCCC2)c1ccc(OC(F)(F)F)cc1 (stereo not drawn) [Example 65, N-[(2E)-3-[imino(oxo)[4-(trifluoromethoxy)phenyl]-%^6-sulfanyl]prop-2-en-1-yl]-2-oxo-1,2,5,6,7,8-hexahydroquinoline-3-carboxamide] | ≤ 1000 | ≤ 1000 | – | – | ≤ 1000 | –
6 | O=C(NC/C=C/S(=O)(=O)c1ccccc1)c1cc2c([nH]c1=O)CCNC2 [Example 66, N-[(2E)-3-(benzenesulfonyl)prop-2-en-1-yl]-2-oxo-1,2,5,6,7,8-hexahydro-1,6-naphthyridine-3-carboxamide hydrochloride] | ≤ 10000 | ≤ 10000 | – | – | ≤ 10000 | –
7 | O=C(NC/C=C/S(=O)(=O)c1ccccc1)c1cc2c([nH]c1=O)CCN(C(=O)OC1COC1)C2 [Example 67, oxetan-3-yl 3-{[(2E)-3-(benzenesulfonyl)prop-2-en-1-yl]carbamoyl}-2-oxo-1,2,5,6,7,8-hexahydro-1,6-naphthyridine-6-carboxylate] | ≤ 1000 | ≤ 10000 | – | – | ≤ 100000 | –
8 | N=S(=O)(/C=C/CNC(=O)c1cc2c([nH]c1=O)CCN(C(=O)OCC1CC1)C2)c1ccc(F)cc1 (stereo not drawn) [Example 68, cyclopropylmethyl 3-{[(2E)-3-[(4-fluorophenyl)(imino)oxo-A*-sulfanyl]prop-2-en-1-yl]carbamoyl}-2-oxo-1,2,5,6,7,8-hexahydro-1,6-naphthyridine-6-carboxylate] | ≤ 100 | ≤ 10000 | – | – | ≤ 10000 | –
9 | O=C(NC/C=C/S(=O)(=O)c1ccccc1)c1cc2c([nH]c1=O)CCN(C(=O)OCC1CC1)C2 [Example 69, cyclopropylmethyl 3-{[(2E)-3-(benzenesulfonyl)prop-2-en-1-yl]carbamoyl}-2-oxo-1,2,5,6,7,8-hexahydro-1,6-naphthyridine-6-carboxylate] | ≤ 100 | ≤ 1000 | – | – | ≤ 1000 | –
10 | O=C(NC/C=C/S(=O)(=O)c1ccccc1)c1cc2c([nH]c1=O)CCN(C(=O)OC1CCC1)C2 [Example 70, cyclobutyl 3-{[(2E)-3-(benzenesulfonyl)prop-2-en-1-yl]carbamoyl}-2-oxo-1,2,5,6,7,8-hexahydro-1,6-naphthyridine-6-carboxylate] | ≤ 100 | ≤ 1000 | – | – | ≤ 1000 | –
11 | Cc1nnc(COC(=O)N2CCc3[nH]c(=O)c(C(=O)NC/C=C/S(=O)(=O)c4ccccc4)cc3C2)o1 [Example 71, (5-methyl-1,3,4-oxadiazol-2-yl)methyl 3-{[(2E)-3-(benzenesulfonyl)prop-2-en-1-yl]carbamoyl}-2-oxo-1,2,5,6,7,8-hexahydro-1,6-naphthyridine-6-carboxylate] | ≤ 1000 | ≤ 100000 | – | – | ≤ 100000 | –
12 | CC(OC(=O)N1CCc2[nH]c(=O)c(C(=O)NC/C=C/S(=O)(=O)c3ccccc3)cc2C1)C(F)(F)F (stereo not drawn) [Example 72, 1,1,1-trifluoropropan-2-yl 3-{[(2E)-3-(benzenesulfonyl)prop-2-en-1-yl]carbamoyl}-2-oxo-1,2,5,6,7,8-hexahydro-1,6-naphthyridine-6-carboxylate] | ≤ 1000 | ≤ 1000 | – | – | ≤ 1000 | –

Continued, in another order:

Row | IC50 [1] [nM] | IC50 ([2]; Homo sapiens, HEK293) [nM] | IC50 ([1]; bin printed as 100 nM < IC50 ≤ 1.0 μM (lower bound in the cell to the left)) [nM] | IC50 ([2]; HEK293, 2.5 ng/mL TNF, bin printed as 1.0 μM < IC50 ≤ 10 μM (lower bound in the cell to the left)) [nM] | SMILES | IC50 ([3]; Homo sapiens, RT-4, 72 h) [nM] | IC50 ([3]; RT4, 1.25 ng/mL TNFα, 72 h, bin printed as 1.0 μM < IC50 ≤ 10 μM (lower bound in the cell to the left)) [nM]
13 | ≤ 100 | ≤ 1000 | – | – | CC1(C)CC1COC(=O)N1CCc2[nH]c(=O)c(C(=O)NC/C=C/S(=O)(=O)c3ccccc3)cc2C1 (stereo not drawn) [Example 73, (2,2-dimethylcyclopropyl)methyl 3-{[(2E)-3-(benzenesulfonyl)prop-2-en-1-yl]carbamoyl}-2-oxo-1,2,5,6,7,8-hexahydro-1,6-naphthyridine-6-carboxylate] | ≤ 1000 | –
14 | ≤ 1000 | ≤ 1000 | – | – | O=C(NC/C=C/S(=O)(=O)c1ccccc1)c1cc2c([nH]c1=O)CCN(C(=O)OCC1CC1(F)F)C2 (stereo not drawn) [Example 74, (2,2-difluorocyclopropyl)methyl 3-{[(2E)-3-(benzenesulfonyl)prop-2-en-1-yl]carbamoyl}-2-oxo-1,2,5,6,7,8-hexahydro-1,6-naphthyridine-6-carboxylate] | ≤ 10000 | –
15 | ≤ 1000 | ≤ 10000 | – | – | COCC(C)OC(=O)N1CCc2[nH]c(=O)c(C(=O)NC/C=C/S(=O)(=O)c3ccccc3)cc2C1 (stereo not drawn) [Example 75, 1-methoxypropan-2-vi 3-{[(2E)-3-(benzenesulfonyl)prop-2-en-1-yl]carbamoyl}-2-oxo-1,2,5,6,7,8-hexahydro-1,6-naphthyridine-6-carboxylate] | ≤ 10000 | –
16 | ≤ 1000 | ≤ 10000 | – | – | O=C(NC/C=C/S(=O)(=O)c1ccccc1)c1cc2c([nH]c1=O)CCN(C(=O)OCCF)C2 [Example 76, 2-fluoroethyl 3-{[(2E)-3-(benzenesulfonyl)prop-2-en-1-yl]carbamoyl}-2-oxo-1,2,5,6,7,8-hexahydro-1,6-naphthyridine-6-carboxylate] | ≤ 10000 | –
17 | ≤ 100 | ≤ 1000 | – | – | O=C(NC/C=C/S(=O)(=O)c1ccccc1)c1cc2c([nH]c1=O)CCN(C(=O)OCC(F)F)C2 [Example 77, 2,2-Difluoroethyl 3-{[(2E)-3-(benzenesulfonyl)prop-2-en-1-yl]carbamoyl}-2-oxo-1,2,5,6,7,8-hexahydro-1,6-naphthyridine-6-carboxylate] | ≤ 10000 | –
18 | ≤ 1000 | ≤ 1000 | – | – | O=C(NC/C=C/S(=O)(=O)c1ccccc1)c1cc2c([nH]c1=O)CCN(C(=O)OC1CC1)C2 [Example 78, cyclopropyl 3-{[(2E)-3-(benzenesulfonyl)prop-2-en-1-yl]carbamoyl}-2-oxo-1,2,5,6,7,8-hexahydro-1,6-naphthyridine-6-carboxylate] | ≤ 10000 | –
19 | ≤ 100 | ≤ 10000 | – | – | O=C(NC/C=C/S(=O)(=O)c1ccccc1)c1cc2c([nH]c1=O)CCN(C(=O)OC1CCC3(CC1)COC3)C2 [Example 79, 2-Oxaspiro[3.5]nonan-7-vi 3-{[(2E)-3-(benzenesulfonyl)prop-2-en-1-yl]carbamoyl}-2-oxo-1,2,5,6,7,8-hexahydro-1,6-naphthyridine-6-carboxylate] | ≤ 10000 | –
20 | ≤ 1000 | ≤ 100000 | – | – | COCCOC(=O)N1CCc2[nH]c(=O)c(C(=O)NC/C=C/S(=O)(=O)c3ccccc3)cc2C1 [Example 80, 2-Methoxyethyl 3-{[(2E)-3-(benzenesulfonyl)prop-2-en-1-yl]carbamoyl}-2-oxo-1,2,5,6,7,8-hexahydro-1,6-naphthyridine-6-carboxylate] | ≤ 10000 | –
21 | ≤ 1000 | ≤ 10000 | – | – | O=C(NCC=CS(=O)(=O)c1ccccc1)c1cc2c([nH]c1=O)CCN(C(=O)OC1CCOC1)C2 [Example 81, (3S)-Oxolan-3-vi 3-{[(2E)-3-(benzenesulfonyl)prop-2-en-1-yl]carbamoyl}-2-oxo-1,2,5,6,7,8-hexahydro-1,6-naphthyridine-6-carboxylate] | ≤ 10000 | –
22 | – | – | ≤ 1000 | ≤ 10000 | O=C(NCC=CS(=O)(=O)c1ccccc1)c1cc2c([nH]c1=O)CCN(C(=O)OC1CCOC1)C2 [Example 82, (3R)-oxolan-3-vi 3-{[(2E)-3-(benzenesulfonyl)prop-2-en-1-yl]carbamoyl}-2-oxo-1,2,5,6,7,8-hexahydro-1,6-naphthyridine-6-carboxylate] | – | ≤ 10000
